In US20240116910A1, “Heterocycles as WIP1 Inhibitors” (PMV Pharmaceuticals, Inc., priority 2022, published 2024):
pIC50: −log10 of the molar value.

biological target: recombinant His-tag Wip1(2-420) protein (amino acids #2-420) (Homo sapiens (Human), UniProt O15297); assay: Wip1(2-420) phosphatase enzyme FDP assay; assay type: biochemical; settings: fluorescein diphosphate (FDP) substrate, RT 2 hours, fluorescence Ex485/Em535; read-out: WIP1 (Truncated 2-420) FDP Assay: IC50
Sequence (O15297 2-420): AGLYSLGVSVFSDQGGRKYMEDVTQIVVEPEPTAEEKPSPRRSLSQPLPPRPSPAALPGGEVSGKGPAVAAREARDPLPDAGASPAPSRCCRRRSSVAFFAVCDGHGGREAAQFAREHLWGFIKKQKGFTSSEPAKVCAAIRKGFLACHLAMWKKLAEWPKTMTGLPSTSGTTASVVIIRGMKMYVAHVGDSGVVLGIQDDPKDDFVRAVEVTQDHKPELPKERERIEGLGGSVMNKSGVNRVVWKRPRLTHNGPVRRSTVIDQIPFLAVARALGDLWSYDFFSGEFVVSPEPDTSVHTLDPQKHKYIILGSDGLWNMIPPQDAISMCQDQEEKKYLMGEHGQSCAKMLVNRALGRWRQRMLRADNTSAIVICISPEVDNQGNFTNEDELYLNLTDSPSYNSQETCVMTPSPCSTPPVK

Row | SMILES | pIC50
1 | C[C@@H](Nc1cc(Cl)nc2ccnn12)c1ccc(C(=O)N[C@@H](CC2CCCC2)C(=O)NC2CC2)s1 [Compound 259, (2S)-2-({5-[(1R)-1-({5-chloropyrazolo[1,5-a]pyrimidin-7-yl}amino)ethyl]thiophen-2-yl}formamido)-3-cyclopentyl-N-cyclopropylpropanamide] | 7.89
2 | C[C@H](Nc1cc(Cl)nc2ccnn12)c1ccc(C(=O)N[C@@H](CC2CCCC2)C(=O)NC2CC2)s1 [Compound 260, (2S)-2-({5-[(1S)-1-({5-chloropyrazolo[1,5-a]pyrimidin-7-yl}amino)ethyl]thiophen-2-yl}formamido)-3-cyclopentyl-N-cyclopropylpropanamide] | 6.68
3 | Cc1ncc(Cl)cc1N[C@H](Cc1ccccc1)c1ccc(C(=O)N[C@@H](CC2CCCC2)C(=O)NC2CC2)s1 [Compound 261, (2S)-2-({5-[(1R)-1-[(5-chloro-2-methylpyridin-3-yl)amino]-2-phenylethyl]thiophen-2-yl}formamido)-3-cyclopentyl-N-cyclopropylpropanamide] | 7.40
4 | Cc1ncc(Cl)cc1N[C@@H](Cc1ccccc1)c1ccc(C(=O)N[C@@H](CC2CCCC2)C(=O)NC2CC2)s1 [Compound 262, (2S)-2-({5-[(1S)-1-[(5-chloro-2-methylpyridin-3-yl)amino]-2-phenylethyl]thiophen-2-yl}formamido)-3-cyclopentyl-N-cyclopropylpropanamide] | 8.22
5 | Cc1ncc(Cl)cc1NC(C)(C)c1ccc(C(=O)N[C@@H](CC2CCCC2)C(=O)NC23CC(C#N)(C2)C3)s1 [Compound 266, (2S)-2-[(5-{2-[(5-chloro-2-methylpyridin-3-yl)amino]propan-2-yl}thiophen-2-yl)formamido]-N-{3-cyanobicyclo[1.1.1]pentan-1-yl}-3-cyclopentylpropanamide] | 7.70
6 | COc1cccc(-c2ncc(Cl)cc2N[C@@H](C)c2ccc(C(=O)N[C@@H](CC3CCCC3)C(=O)NC3CC3)s2)c1 [Compound 267, (2S)-2-({5-[(1S)-1-{[5-chloro-2-(3-methoxyphenyl)pyridin-3-yl]amino}ethyl]thiophen-2-yl}formamido)-3-cyclopentyl-N-cyclopropylpropanamide] | 8.00
7 | COc1cccc(-c2ncc(Cl)cc2N[C@H](C)c2ccc(C(=O)N[C@@H](CC3CCCC3)C(=O)NC3CC3)s2)c1 [Compound 268, (2S)-2-({5-[(1R)-1-{[5-chloro-2-(3-methoxyphenyl)pyridin-3-yl]amino}ethyl]thiophen-2-yl}formamido)-3-cyclopentyl-N-cyclopropylpropanamide] | 6.32
8 | Cc1cc(NC(=O)[C@H](CC2CCCC2)NC(=O)c2ccc(C(C)(C)Nc3cc(Cl)cnc3C)s2)ccn1 [Compound 270, (2S)-2-[(5-{2-[(5-chloro-2-methylpyridin-3-yl)amino]propan-2-yl}thiophen-2-yl)formamido]-3-cyclopentyl-N-(2-methylpyridin-4-yl)propanamide] | 8.22
9 | Cc1ncc(Cl)cc1NC(C)(C)c1ccc(C(=O)N[C@@H](CC2CCCC2)C(=O)N[C@H]2C[C@H](F)C2)s1 [Compound 275, (2S)-2-[(5-{2-[(5-chloro-2-methylpyridin-3-yl)amino]propan-2-yl}thiophen-2-yl)formamido]-3-cyclopentyl-N-[(1r,3r)-3-fluorocyclobutyl]propanamide] | 8.00
10 | COc1ccc(NC(=O)[C@H](CC2CCCC2)NC(=O)c2ccc([C@H](C)Nc3cc(Cl)cnc3C)s2)cn1 [Compound 276, (2S)-2-({5-[(1S)-1-[(5-chloro-2-methylpyridin-3-yl)amino]ethyl]thiophen-2-yl}formamido)-3-cyclopentyl-N-(6-methoxypyridin-3-yl)propanamide] | 8.30
11 | Cc1ncc(Cl)cc1N[C@@H](C)c1ncc(C(=O)N[C@@H](CC2CCCC2)C(=O)NC23CC(C2)C3)s1 [Compound 310, (2S)-N-{bicyclo[1.1.1]pentan-1-yl}-2-({2-[(1S)-1-[(5-chloro-2-methylpyridin-3-yl)amino]ethyl]-1,3-thiazol-5-yl}formamido)-3-cyclopentylpropanamide] | 5.99

Next, values leading:

Row | pIC50 | SMILES
12 | 8.10 | Cc1ncc(Cl)cc1N[C@@H](C)c1ccc(C(=O)N[C@@H](CC2CCCC2)C(=O)NC23CCC(CC2)CC3)s1 [Compound 257, (2S)-N-{bicyclo[2.2.2]octan-1-yl}-2-({5-[(1S)-1-[(5-chloro-2-methylpyridin-3-yl)amino]ethyl]thiophen-2-yl}formamido)-3-cyclopentylpropanamide]
13 | 8.15 | Cc1ncc(Cl)cc1N[C@@H](C)c1ccc(C(=O)N[C@@H](CC2CCCC2)C(=O)N[C@@H]2CC[C@H](F)C2)s1 [Compound 258, (2S)-2-({5-[(1S)-1-[(5-chloro-2-methylpyridin-3-yl)amino]ethyl]thiophen-2-yl}formamido)-3-cyclopentyl-N-[(1R,3S)-3-fluorocyclopentyl]propanamide]
14 | 7.89 | Cc1ncc(Cl)cc1N[C@@H](C)c1ccc(C(=O)N[C@@H](CC2CCCC2)C(=O)NC2CCC(O)C2)s1 (stereo partly drawn) [Compound 263, (2S)-2-({5-[(1S)-1-[(5-chloro-2-methylpyridin-3-yl)amino]ethyl]thiophen-2-yl}formamido)-3-cyclopentyl-N-(3-hydroxycyclopentyl)propanamide]
15 | 8.15 | CCNC(=O)[C@H](CC1CCCCC1)NC(=O)c1ccc([C@H](C)Nc2cc(Cl)cnc2C)s1 [Compound 264, (2S)-2-({5-[(1S)-1-[(5-chloro-2-methylpyridin-3-yl)amino]ethyl]thiophen-2-yl}formamido)-3-cyclohexyl-N-ethylpropanamide]
16 | 8.10 | CNC(=O)[C@H](CC1CCCCC1)NC(=O)c1ccc([C@H](C)Nc2cc(Cl)cnc2C)s1 [Compound 265, (2S)-2-({5-[(1S)-1-[(5-chloro-2-methylpyridin-3-yl)amino]ethyl]thiophen-2-yl}formamido)-3-cyclohexyl-N-methylpropanamide]
17 | 7.85 | C[C@H](Nc1cc(Cl)cnc1C(=O)O)c1ccc(C(=O)N[C@@H](CC2CCCC2)C(=O)NC2CC2)s1 [Compound 269, 5-chloro-3-{[(1S)-1-(5-{[(1S)-2-cyclopentyl-1-(cyclopropylcarbamoyl)ethyl]carbamoyl}thiophen-2-yl)ethyl]amino}pyridine-2-carboxylic acid]
18 | 8.00 | Cc1ncc(Cl)cc1N[C@@H](C)c1ccc(C(=O)N[C@@H](CC2CCCC2)C(=O)NCCF)s1 [Compound 271, (2S)-2-({5-[(1S)-1-[(5-chloro-2-methylpyridin-3-yl)amino]ethyl]thiophen-2-yl}formamido)-3-cyclopentyl-N-(2-fluoroethyl)propanamide]
19 | 7.85 | Cc1ncc(Cl)cc1N[C@@H](C)c1ccc(C(=O)N[C@@H](C[C@H]2CCC3C[C@@H]32)C(=O)NC2CC2)s1 (stereo partly drawn) [Compound 272, (2S)-3-[(2R)-bicyclo[3.1.0]hexan-2-yl]-2-({5-[(1S)-1-[(5-chloro-2-methylpyridin-3-yl)amino]ethyl]thiophen-2-yl}formamido)-N-cyclopropylpropanamide]
20 | 6.09 | C[C@@H](Nc1cc(Cl)cnc1C(=O)O)c1ccc(C(=O)N[C@@H](CC2CCCC2)C(=O)NC2CC2)s1 [Compound 274, 5-chloro-3-{[(1R)-1-(5-{[(1S)-2-cyclopentyl-1-(cyclopropylcarbamoyl)ethyl]carbamoyl}thiophen-2-yl)ethyl]amino}pyridine-2-carboxylic acid]
21 | 5.81 | Cc1ncc(Cl)cc1N[C@@H](C)c1ncc(C(=O)N[C@@H](CC2CCCC2)C(=O)NC2CC2)s1 [Compound 311, (2S)-2-({2-[(1S)-1-[(5-chloro-2-methylpyridin-3-yl)amino]ethyl]-1,3-thiazol-5-yl}formamido)-3-cyclopentyl-N-cyclopropylpropanamide]
